According to US20240391931A1 (Bristol-Myers Squibb Company, priority 2021, published 2024):

How the values were obtained:
[1] = molecular target: T1, HER2 wildtype (WT) protein (Homo sapiens, UniProt P04626); assay: HER2 signaling (pHER2 Tyr1248/total HER2 MSD) in BT474 cells; type: cell-based; conditions: 1.5 hr compound, 1% FBS
T1 construct: BT474 and N87 cell lines which endogenously overexpress the HER2 wildtype (WT) protein; endogenous in cells; host or cells: BT474, N87
Summary of the method: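 BT474, N87 (HER2 WT) and NCI-H1781 (HER2 G776delinsVC) cells were treated for 1.5 h at 37° C in 1% FBS medium with compound at 0.0005–1.1 μM. pHER2 Tyr1248 was measured by MSD on whole-cell lysates and normalized to total HER2 as % DMSO. EC50 came from a variable-slope sigmoidal fit.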

HER2YVMA = HER2YVMA (Homo sapiens, UniProt P04626, INS775YVMA); assay: Enzymatic assay HER2YVMA (method b); type: biochemical; design: purchased Viva biotech, Shanghai, China custom purification; conditions: [HER2YVMA]=5 nM, [ATP]=25 μM, [Peptide 22]=1 μM
Summary of the method: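 Microfluidic mobility-shift kinase assay with Peptide 22 (1 μM) in HEPES pH 7.5, MnCl2, MgCl2, Tween 20, TCEP. HER2 WT 12.5 nM and HER2 YVMA 5 nM each used 25 μM ATP; EGFR WT 2 nM used 1 mM ATP. IC50 came from initial-velocity (0–3600 s) percent inhibition, fitted to a variable-slope model.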

T1 sequence (P04626 23-1255): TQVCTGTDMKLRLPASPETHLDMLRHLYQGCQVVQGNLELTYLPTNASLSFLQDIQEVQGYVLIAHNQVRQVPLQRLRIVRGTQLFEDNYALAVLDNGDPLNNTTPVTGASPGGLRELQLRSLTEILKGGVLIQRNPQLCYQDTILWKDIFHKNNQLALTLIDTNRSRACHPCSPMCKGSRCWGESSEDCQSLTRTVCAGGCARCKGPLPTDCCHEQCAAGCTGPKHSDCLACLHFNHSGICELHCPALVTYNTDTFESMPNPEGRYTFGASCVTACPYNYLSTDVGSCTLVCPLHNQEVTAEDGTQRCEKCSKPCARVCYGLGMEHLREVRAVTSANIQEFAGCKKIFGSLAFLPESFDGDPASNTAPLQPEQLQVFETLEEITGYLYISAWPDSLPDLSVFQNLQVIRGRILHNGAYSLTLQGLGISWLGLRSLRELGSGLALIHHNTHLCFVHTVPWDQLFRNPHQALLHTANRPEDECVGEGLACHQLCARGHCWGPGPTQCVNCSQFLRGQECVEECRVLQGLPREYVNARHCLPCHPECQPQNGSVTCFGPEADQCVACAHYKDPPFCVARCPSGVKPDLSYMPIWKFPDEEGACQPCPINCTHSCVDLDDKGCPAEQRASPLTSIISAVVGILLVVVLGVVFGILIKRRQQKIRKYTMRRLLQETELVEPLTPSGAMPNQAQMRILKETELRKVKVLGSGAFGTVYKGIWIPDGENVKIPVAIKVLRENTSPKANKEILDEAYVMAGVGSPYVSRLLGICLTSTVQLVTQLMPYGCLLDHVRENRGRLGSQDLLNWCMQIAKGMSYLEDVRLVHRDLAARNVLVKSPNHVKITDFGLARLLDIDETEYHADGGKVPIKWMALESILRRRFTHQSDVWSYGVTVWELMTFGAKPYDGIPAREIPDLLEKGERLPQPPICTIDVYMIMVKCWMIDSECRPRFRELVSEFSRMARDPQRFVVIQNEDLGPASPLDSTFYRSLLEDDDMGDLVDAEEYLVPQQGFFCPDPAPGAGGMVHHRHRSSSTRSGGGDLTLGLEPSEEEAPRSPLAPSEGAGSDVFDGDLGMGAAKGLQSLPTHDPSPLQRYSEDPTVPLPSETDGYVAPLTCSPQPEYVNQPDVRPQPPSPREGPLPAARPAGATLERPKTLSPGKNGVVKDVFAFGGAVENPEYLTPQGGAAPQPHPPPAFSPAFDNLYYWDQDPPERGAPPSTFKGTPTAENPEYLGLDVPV
Chain of HER2YVMA (P04626 with tags, fused parts or gaps INS775YVMA): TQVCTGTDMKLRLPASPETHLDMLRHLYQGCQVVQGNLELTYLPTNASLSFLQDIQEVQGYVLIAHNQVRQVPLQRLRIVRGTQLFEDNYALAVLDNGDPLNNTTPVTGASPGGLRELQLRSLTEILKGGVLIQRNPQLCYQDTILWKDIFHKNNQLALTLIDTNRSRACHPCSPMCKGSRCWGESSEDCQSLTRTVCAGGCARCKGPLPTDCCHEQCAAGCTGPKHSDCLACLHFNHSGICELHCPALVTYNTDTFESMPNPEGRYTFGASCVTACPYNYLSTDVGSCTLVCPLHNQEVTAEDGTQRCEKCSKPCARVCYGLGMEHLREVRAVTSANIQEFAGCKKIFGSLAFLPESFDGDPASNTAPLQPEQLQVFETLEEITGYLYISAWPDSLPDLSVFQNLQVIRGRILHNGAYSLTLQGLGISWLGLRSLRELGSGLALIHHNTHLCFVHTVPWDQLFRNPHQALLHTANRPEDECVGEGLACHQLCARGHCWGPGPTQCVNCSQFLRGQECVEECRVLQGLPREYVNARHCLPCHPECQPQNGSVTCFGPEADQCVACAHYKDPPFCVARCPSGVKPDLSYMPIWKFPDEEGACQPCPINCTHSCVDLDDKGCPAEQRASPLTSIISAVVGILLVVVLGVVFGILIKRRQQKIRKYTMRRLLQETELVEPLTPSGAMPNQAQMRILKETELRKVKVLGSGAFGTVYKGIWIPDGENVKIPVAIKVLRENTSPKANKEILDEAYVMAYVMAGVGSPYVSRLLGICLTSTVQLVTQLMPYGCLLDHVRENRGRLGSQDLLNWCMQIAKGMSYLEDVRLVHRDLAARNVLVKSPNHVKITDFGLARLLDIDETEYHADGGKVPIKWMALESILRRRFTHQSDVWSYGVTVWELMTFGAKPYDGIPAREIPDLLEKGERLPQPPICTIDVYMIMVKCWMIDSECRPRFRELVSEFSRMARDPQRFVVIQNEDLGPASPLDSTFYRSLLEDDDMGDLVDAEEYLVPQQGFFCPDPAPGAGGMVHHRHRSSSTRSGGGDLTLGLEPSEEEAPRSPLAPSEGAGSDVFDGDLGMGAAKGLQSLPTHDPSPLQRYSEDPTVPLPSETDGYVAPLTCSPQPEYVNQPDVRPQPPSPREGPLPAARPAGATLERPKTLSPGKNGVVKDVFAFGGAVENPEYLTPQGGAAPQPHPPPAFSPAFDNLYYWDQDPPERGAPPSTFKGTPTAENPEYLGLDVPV

Compound | EC50 [1] [nM] | IC50 (HER2YVMA) [nM]
Cc1ccc(Oc2ccc(Nc3ncnc4sc5c(c34)CCN(C(=O)/C=C/CN3CCCC34CCC4)C5)cc2C)cn1 [Compound 115] | < 100 | < 100
Cc1ccc(Oc2ccc(Nc3ncnc4sc5c(c34)CCN(C(=O)/C=C/CN3CC(C)OC(C)C3C)C5)cc2C)cn1 (centres unmarked) [Compound 117] | < 100 | < 100
Cc1ccc(Oc2ccc(Nc3ncnc4sc5c(c34)CCN(C(=O)/C=C/CN3CC4CC4(CO)C3)C5)cc2C)cn1 (centres unmarked) [Compound 118] | < 100 | < 100
Cc1ccc(Oc2ccc(Nc3ncnc4sc5c(c34)CCN(C(=O)/C=C/CN3CCCCC3(C)CO)C5)cc2C)cn1 (centres unmarked) [Compound 119] | < 100 | < 100
Cc1ccc(Oc2ccc(Nc3ncnc4sc5c(c34)CCN(C(=O)/C=C/CN3C[C@H]4C[C@@H]3CC4C#N)C5)cc2C)cn1 (some centres unmarked) [Compound 120] | < 100 | < 100
Cc1ccc(Oc2ccc(Nc3ncnc4sc5c(c34)CCN(C(=O)/C=C/CN3CC(C)(C)OC(C)(C)C3)C5)cc2C)cn1 [Compound 121] | < 100 | 100 to 1000
CC[C@H](NC/C=C/C(=O)N1CCc2c(sc3ncnc(Nc4ccc(Oc5ccc(C)nc5)c(C)c4)c23)C1)C(F)(F)F [Compound 122] | < 100 | < 100
Cc1ccc(Oc2ccc(Nc3ncnc4sc5c(c34)CCN(C(=O)/C=C/CN3CC4(CCCC4)C3)C5)cc2C)cn1 [Compound 123] | < 100 | < 100
Cc1ccc(Oc2ccc(Nc3ncnc4sc5c(c34)CCN(C(=O)/C=C/CN3CC[C@H](F)C3)C5)cc2C)cn1 [Compound 124] | < 100 | < 100
Cc1cc(Nc2ncnc3sc4c(c23)CCN(C(=O)/C=C/CN(C)C)C4)ccc1Oc1ccn2ccnc2c1 [Compound 126, (E)-4-(dimethylamino)-1-(4-((4-(imidazo[1,2-a]pyridin-7-yloxy)-3-methylphenyl)amino)-5,8-dihydropyrido[4′,3′:4,5]thieno[2,3-d]pyrimidin-7(6H)-yl)but-2-en-1-one] | < 100 | < 100
Cc1nc2cc(Oc3ccc(Nc4ncnc5sc6c(c45)CCN(C(=O)/C=C/CN(C)C)C6)cc3C)ccn2n1 [Compound 127, (E)-4-(dimethylamino)-1-(4-((3-methyl-4-((2-methyl-[1,2,4]triazolo[1,5-a]pyridin-7-yl)oxy)phenyl)amino)-5,6-dihydropyrido[4′,3′:4,5]thieno[2,3-d]pyrimidin-7(8H)-yl)but-2-en-1-one] | < 100 | < 100
COc1ccc(Oc2ccc(Nc3ncnc4sc5c(c34)CN(C(=O)/C=C/CN(C)C)C5)cc2C)cn1 [Compound 128, (E)-4-(dimethylamino)-1-(4-((4-((6-methoxypyridin-3-yl)oxy)-3-methylphenyl)amino)-5,7-dihydro-6H-pyrrolo[3′,4′:4,5]thieno[2,3-d]pyrimidin-6-yl)but-2-en-1-one] | < 100 | < 100
Cc1ccc(Oc2ccc(Nc3ncnc4sc5c(c34)CN(C(=O)/C=C/CN(C)C)C5)cc2Cl)cn1 [Compound 129, (E)-1-(4-((3-Chloro-4-((6-methylpyridin-3-yl)oxy)phenyl)amino)-5H-pyrrolo[3′,4′:4,5]thieno[2,3-d]pyrimidin-6(7H)-yl)-4-(dimethylamino)but-2-en-1-one] | < 100 | < 100
Cc1cc(Nc2ncnc3sc4c(c23)CN(C(=O)/C=C/CN(C)C)C4)ccc1Oc1ccn2ncnc2c1 [Compound 130, (E)-1-(4-((4-([1,2,4]Triazolo[1,5-a]pyridin-7-yloxy)-3-methylphenyl)amino)-5H-pyrrolo[3′,4′:4,5]thieno[2,3-d]pyrimidin-6(7H)-yl)-4-(dimethylamino)but-2-en-1-one] | < 100 | < 100
CCN(CC)C/C=C/C(=O)N1CCc2c(sc3ncnc(Nc4ccc(Oc5ccc(C)nc5)c(C)c4)c23)C1 [Compound 131] | < 100 | < 100
Cc1ccc(Oc2ccc(Nc3ncnc4sc5c(c34)CCN(C(=O)/C=C/CN3CC[C@@H](CO)C3)C5)cc2C)cn1 [Compound 132] | < 100 | < 100
Cc1ccc(Oc2ccc(Nc3ncnc4sc5c(c34)CCN(C(=O)/C=C/CN3CC[C@H](CO)C3)C5)cc2C)cn1 [Compound 133] | < 100 | < 100
Cc1ccc(Oc2ccc(Nc3ncnc4sc5c(c34)CCN(C(=O)/C=C/CN3CC(CO)(CO)C3)C5)cc2C)cn1 [Compound 134] | 100 to 350 | < 100
Cc1ccc(Oc2ccc(Nc3ncnc4sc5c(c34)CCN(C(=O)/C=C/CN3CCC(CO)(CO)CC3)C5)cc2C)cn1 [Compound 135] | < 100 | < 100

Compound | EC50 [1] [nM] | IC50 (HER2YVMA) [nM]
Cc1ccc(Oc2ccc(Nc3ncnc4sc5c(c34)CCN(C(=O)/C=C/CN3CCO[C@H](CO)C3)C5)cc2C)cn1 [Compound 136] | < 100 | < 100
CCN(CC)C/C=C/C(=O)N1CCc2c(sc3ncnc(Nc4ccc(Oc5ccc(OC)nc5)c(C)c4)c23)C1 [Compound 137] | < 100 | < 100
Cc1cc(Nc2ncnc3sc4c(c23)CCN(C(=O)/C=C/CN(C)C)C4)ccc1Oc1ccn2ncnc2c1 [Compound 138, (E)-1-(4-((4-([1,2,4]triazolo[1,5-a]pyridin-7-yloxy)-3-methylphenyl)amino)-5,8-dihydropyrido[4′,3′:4,5]thieno[2,3-d]pyrimidin-7(6H)-yl)-4-(dimethylamino)but-2-en-1-one] | < 100 | < 100
C#CCOCCN(C)C/C=C/C(=O)N1CCc2c(sc3ncnc(Nc4ccc(Oc5ccc(C)nc5)c(C)c4)c23)C1 [Compound 139] | < 100 | < 100
COc1ccc(Oc2ccc(Nc3ncnc4sc5c(c34)CCN(C(=O)/C=C/CN3CC[C@H](CO)C3)C5)cc2C)cn1 [Compound 140] | < 100 | < 100
Cc1ccc(Oc2ccc(Nc3ncnc4sc5c(c34)C(C)N(C(=O)/C=C/CN(C)C)C5)cc2C)cn1 (centres unmarked) [Compound 141, (E)-4-(dimethylamino)-1-(5-methyl-4-((3-methyl-4-((6-methylpyridin-3-yl)oxy)phenyl)amino)-5,7-dihydro-6H-pyrrolo[3′,4′:4,5]thieno[2,3-d]pyrimidin-6-yl)but-2-en-1-one] | < 100 | < 100
C=CC(=O)N1Cc2sc3ncnc(Nc4ccc(Oc5ccc(C)nc5)c(C)c4)c3c2C(C)C1 (centres unmarked) [Compound 142, 1-(5-methyl-4-((3-methyl-4-((6-methylpyridin-3-yl)oxy)phenyl)amino)-5,6-dihydropyrido[4′,3′:4,5]thieno[2,3-d]pyrimidin-7(8H)-yl)prop-2-en-1-one] | < 100 | < 100
COc1ccc(Oc2ccc(Nc3ncnc4sc5c(c34)CCN(C(=O)/C=C/CN3CC[C@@H](CO)C3)C5)cc2C)cn1 [Compound 143] | < 100 | < 100
Cc1ccc(Oc2ccc(Nc3ncnc4sc5c(c34)CCN(C(=O)/C=C/CN3CCO[C@@H](CO)C3)C5)cc2C)cn1 [Compound 144] | < 100 | 100 to 1000
Cc1ccc(Oc2ccc(Nc3ncnc4sc5c(c34)CCN(C(=O)/C=C/CN3CCCC(F)(CO)C3)C5)cc2C)cn1 (centres unmarked) [Compound 150] | < 100 | < 100
Cc1ccc(Oc2ccc(Nc3ncnc4sc5c(c34)CCN(C(=O)/C=C/CN3CC(F)(CO)C3)C5)cc2C)cn1 [Compound 151] | < 100 | < 100
COc1ccc(Oc2ccc(Nc3ncnc4sc5c(c34)C(C)CN(C(=O)/C=C/CN(C)C)C5)cc2C)cn1 (centres unmarked) [Compound 152, (E)-4-(dimethylamino)-1-(4-((4-((6-methoxypyridin-3-yl)oxy)-3-methylphenyl)amino)-5-methyl-5,8-dihydropyrido[4′,3′:4,5]thieno[2,3-d]pyrimidin-7(6H)-yl)but-2-en-1-one] | < 100 | < 100
Cc1ccc(Oc2ccc(Nc3ncnc4sc5c(c34)CN(C(=O)/C=C/CN(C)C)C5C)cc2C)cn1 (centres unmarked) [Compound 153, (E)-4-(dimethylamino)-1-(7-methyl-4-((3-methyl-4-((6-methylpyridin-3-yl)oxy)phenyl)amino)-5,7-dihydro-6H-pyrrolo[3′,4′:4,5]thieno[2,3-d]pyrimidin-6-yl)but-2-en-1-one] | < 100 | < 100
Cc1ccc(Oc2ccc(Nc3ncnc4sc5c(c34)CCN(C(=O)/C=C/CN3CCC[C@@H](CO)C3)C5)cc2C)cn1 [Compound 154] | < 100 | < 100
Cc1ccc(Oc2ccc(Nc3ncnc4sc5c(c34)CCN(C(=O)/C=C/CN3CCC[C@H](CO)C3)C5)cc2C)cn1 [Compound 155] | < 100 | < 100
Cc1cc(Nc2ncnc3sc4c(c23)CCN(C(=O)/C=C/CN(C)C)C4)ccc1Oc1ccc(N(C)C)nc1 [Compound 158, (E)-4-(dimethylamino)-1-(4-((4-((6-(dimethylamino)pyridin-3-yl)oxy)-3-methylphenyl)amino)-5,8-dihydropyrido[4′,3′:4,5]thieno[2,3-d]pyrimidin-7(6H)-yl)but-2-en-1-one] | < 100 | < 100
COc1ccc(Oc2ccc(Nc3ncnc4sc5c(c34)CCN(C(=O)/C=C/CN(C)C(C)(C)C)C5)cc2C)cn1 [Compound 163] | < 100 | < 100
COc1ccc(Oc2ccc(Nc3ncnc4sc5c(c34)CCN(C(=O)/C=C/CN3CCOCC3)C5)cc2C)cn1 [Compound 164] | < 100 | 100 to 1000
